Data: patent US20250235543A1, “MODIFIED PROTEINS AND PROTEIN DEGRADERS” (Cullgen (Shanghai), Inc., priority 2021, published 2025)

Columns and labels:
Format in all cases: cell-based
[1] = system: cyclin D1, cyclin D2, cyclin D3; assay: Immunoblot of cyclin D protein levels in Calu-1 (and BT-549) cells; details: Calu-1 cells, 8 hours, dose range
Calu-1 = assay: Cell viability assay, Calu-1; details: Calu-1 cells, 96-well plates, serial dilution, 3 days
Description: Cells were treated with CDK4/6 inhibitors palbociclib, ribociclib, or abemaciclib, or heterobifunctional compounds CPD-002 or CPD-031 following a 9-point serial dilution for 3 days.
Cells were seeded at a density of 2,000-5,000 cells per well in 96-well assay plates and treated with test compounds following a 10-point serial dilution for 3-6 days. Cell viability was determined using the CellTiter-Lumi assay kit according to the manufacturer's instructions. The dose-response curves were determined and IC50 values were calculated using the GraphPad Prism software following a nonlinear regression (least squares fit) method. Data presented was mean±standard deviation (SD) unless otherwise indicated.

CDK4, CDK6 = assay: Immunoblot of CDK4 and CDK6 protein levels in Calu-1 cells; details: 8 hours, dose range
Description: Specific exemplary heterobifunctional compounds were characterized in Calu-1, BT-549 and other cells. Cells that express cyclin D1-3 and CDK4/6 proteins were treated with heterobifunctional compounds disclosed herein at indicated concentrations for 16 hours. Cells were collected, lysed and subject to immunoblotting using an antibody specific to cyclin D1, cyclin D2, cyclin D3, CDK4, CDK6 or phosphorylated R^b proteins. Tubulin or GAPDH was used as the loading control. DMSO treatment was used as the negative control.
In a time-course study, Calu-1 cells were treated with 500 nM CPD-002, or 100 nM CPD-031 for indicated period of time prior to immunoblotting (FIG. 4A-4B).
To verify that heterobifunctional compound-mediated degradation is dependent on the binding to CDK4-cyclin D complex, we designed three negative control compounds, CPD-042, CPD-049 and CPD-380, which are derived from CPD-002 CPD-031 and CPD-343, respectively. These three control compounds bear the same DDB1 ligand and linker as their corresponding active heterobifunctional compounds but with modified warheads to impair the binding of the control compounds to CDK4. […] Two cereblon (CRBN)-recruiting reference heterobifunctional compounds, CP-10 (Su, J Med Chem, 2019; CAS No.: 2366268-80-4) and BSJ-03-123 (Brand, Cell Chem Biol, 2019; CAS No.: 2361493-16-3) were analyzed in Calu-1 cells.

Calu-1 cells = assay: Anti-viability / anti-proliferation in Calu-1 cells; details: 3 days
Description: FIG. 6 show immunoblots of cyclin D1, cyclin D2, cyclin D3, and CDK4 proteins expressed by Calu-1 cells after treatment with a dose range of control compounds CPD-042 (A), or CPD-049 (B) for 16 hours, and anti-viability curves of Calu-1 cells in the presence of CPD-002 and CPD-042 (C), or CPD-031 and CPD-049 (D).
FIG. 11A-11B show immunoblots of cyclin D1, CDK4, and CDK6 proteins expressed by Calu-1 cells after treatment with a dose range of heterobifunctional reference compound CP-10, or BSJ-03-123 for 8 hours (FIG. 11A), and anti-viability curves of Calu-1 cells in the presence of CP-10, or BSJ-03-123 for 3 days (FIG. 11B).
To verify that heterobifunctional compound-mediated degradation is dependent on the binding to CDK4-cyclin D complex, we designed three negative control compounds, CPD-042, CPD-049 and CPD-380, which are derived from CPD-002 CPD-031 and CPD-343, respectively. These three control compounds bear the same DDB1 ligand and linker as their corresponding active heterobifunctional compounds but with modified warheads to impair the binding of the control compounds to CDK4. […] However, the binding to CDK4 is not sufficient for cyclin D degradation. Two cereblon (CRBN)-recruiting reference heterobifunctional compounds, CP-10 (Su, J Med Chem, 2019; CAS No.: 2366268-80-4) and BSJ-03-123 (Brand, Cell Chem Biol, 2019; CAS No.: 2361493-16-3) were analyzed in Calu-1 cells.

[2] = system: cyclin D1, cyclin D2, cyclin D3, CDK4 and CDK6; assay: Immunoblotting of cyclin D and CDK4/6 protein levels in Calu-1 cells; details: indicated concentrations, 8 hours
Description: Calu-1 (FIG. 2A) or BT-549 (FIG. 2B) cells were treated with CPD-002, CPD-004, or palbociclib at indicated concentrations for 16 hours.
Calu-1 cells were treated with CPD-031 at indicated concentrations for 16 hours.
Calu-1 cells were treated with CPD-002 or CPD-031 at 500 nM or 100 nM, respectively for indicated period of time.
Calu-1 cells were pre-treated with DMSO, 20 μM MG-132 (MG), 5 μM MLN4924 (MLN) or 1 μM TAK-243 (TAK) for 2 hours, and subsequently incubated with 500 nM CPD-002, 500 nM CPD-004, or 100 nM CPD-031 for another 4 h or 2 h prior to immunoblotting (FIG. 5A-5B).
Calu-1 cells were treated with a dose range of negative control compounds CPD-042 or CPD-049 for 16 hours (FIG. 6A-6B).
Calu-1 cells were treated with reference compounds CP-10 or BSJ-03-123 at indicated concentrations for 8 hours.
(§1) Cultured cells were washed with cold PBS once and lysed in cold RIPA buffer supplemented with protease inhibitors and phosphatase inhibitors (Beyotime Biotechnology). The solutions were then incubated at 4° C. for 30 min with gentle agitation to fully lysed cells. Cell lysates were centrifuged at 13,000 rpm for 10 min at 4° C. and pellets were discarded. Total protein concentrations in the lysates were determined following BCA assays (Beyotime Biotechnology). Cell lysates were mixed with Laemmli loading buffer and heated at 99° C. for 5 min. Proteins were resolved on SDS-PAGE and visualized using Western ECL Substrate kits on a ChemiDoc MP Imaging system (Bio-Rad). Protein bands were quantitated using the Image Lab software provided by Bio-Rad.

BRD4 [3] = target: T1, BRD4 (Homo sapiens, UniProt O60885); assay: Immunoblot of BRD4 protein levels in Daudi, SU-DHL-4 or MDA-MB-231 cells; details: SU-DHL-4 or MDA-MB-231 cell lines, 8 hours, dose range
T1 construct: endogenous in cells; host or cells: Daudi, SU-DHL-4, MDA-MB-231
Source text: Additional exemplary heterobifunctional compounds were designed to modulate the protein levels of either P300/CBP, or BRD4, and characterized in multiple cell lines. […] Taken together, DDB1 ligands conjugating with different target ligands may modulate the cellular target protein levels of cyclin D, CDK4/6, P300/CBP and BRD4.

BRD4 [4] = target: T1, BRD4; assay: Immunoblotting of BRD4 protein levels in multiple cell lines; details: Daudi, SU-DHL-4, or MDA-MB-231 cells, 8 hours
Description: Daudi, SU-DHL-4, or MDA-MB-231 cells were treated with CPD-253 at indicated concentrations for 8 hours.
as §1

[5] = system: T47D palbo-resistant cells; assay: Cell viability in T47D palbo-resistant model; details: 10-point serial dilution, 6 days
Description: T47D cells were cultured long-term to resistance in the presence of 1 μM Palbocicilib. Palbo resistance was determined by CellTiter-Lumi cell viability assay. T47D parental or palbo-resistant cells were treated with palbociclib, or heterobifunctional compound CPD-343 following a 10-point serial dilution for 6 days.
Calu-1, T47D, MCF7, NCI-H522, BT-549, MDA-MB-157, MDA-MB-453, MDA-MB-468, Hs578T, KURAMOCHI, OVCAR3, MIA PaCa-2, Cal-62, LNCaP, NCI-H1703, MM.1R, Daudi, SU-DHL-4, MDA-MB-231 and other cells were cultured at 37° C. with 5% CO2 in RPMI 1640 or DMEM medium supplemented with 10% fetal bovine serum. Cells were authenticated using the short tandem repeat (STR) assays. Mycoplasma test results were negative. Cell transfection was performed using PEI or Lipofectamine 2000 (Invitrogen) following the manufacturer's instructions. […]
Cells were seeded at a density of 2,000-5,000 cells per well in 96-well assay plates and treated with test compounds following a 10-point serial dilution for 3-6 days. Cell viability was determined using the CellTiter-Lumi assay kit according to the manufacturer's instructions. The dose-response curves were determined and IC50 values were calculated using the GraphPad Prism software following a nonlinear regression (least squares fit) method. […]

cyclin D1 = assay: Cyclin D1 percentage degradation in Calu-1 cells (immunoblotting); details: 200 nM, 16 hours
How it was run: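 Cyclin D1 degradation was assessed by western blot. Clarified lysates, obtained by RIPA lysis with inhibitors and centrifugation at 13,000 rpm, were normalized by BCA protein assay and separated by SDS-PAGE. Bands were detected with Western ECL Substrate on a Bio-Rad ChemiDoc MP Imaging system and quantified in Image Lab software to derive percentage degradation.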

T47D cells [6] = assay: Flow cytometric analysis of Annexin V/7-AAD stained T47D cells; details: 6 days
Description: ER^+ breast cancer T47D cells were treated with DMSO, palbociclib, heterobifunctional compound CPD-343, or negative control compound CPD-380 for 6 days at doses approximating IC50 and IC90 concentrations determined in FIGS. 10A and 13. Cells were harvested by trypsinization, staining was carried out using the Annexin V Apoptosis Detection Kit. The percentages of early apoptotic (Annexin V^+7-AAD^−, lower right quadrant), late apoptotic (Annexin V^+7-AAD^+, upper right quadrant) and necrotic cells (Annexin V-7-AAD^+, upper left quadrant) are indicated on dot plots. […] Furthermore, we developed one ER^+ breast cancer T47D model with acquired resistance after long period of treatment with 1 μM palbociclib (over IC90). Cells were deemed resistant when growing in the presence of palbo at the same rate as parental cells. Palbo resistance was determined by CellTiter-Lumi cell viability assay.

[7] = system: T47D palbo-resistant model; assay: CellTiter-Lumi cell viability in T47D palbociclib-resistant model; details: 6 days; resistance acquired under 1 μM palbociclib
Description: Furthermore, we developed one ER^+ breast cancer T47D model with acquired resistance after long period of treatment with 1 μM palbociclib (over IC90). […] Palbo resistance was determined by CellTiter-Lumi cell viability assay.

T47D cells [8] = assay: Annexin V apoptosis flow cytometry in T47D cells; details: 6 days
Description: T47D cells were treated with DMSO, palbociclib, heterobifunctional compound CPD-343, or negative control compound CPD-380 for 6 days at doses approximating IC50 and IC90 concentrations as indicated. Cells were harvested by trypsinization, staining was carried out using the Annexin V Apoptosis Detection Kit.
Assays were performed on the CytoFLEX Cytometer (Beckman Coulter), and data were analyzed using CytExpert software. For cell death and apoptosis analysis, cells were harvested by trypsinization, staining was carried out using the Annexin V Apoptosis Detection Kit (BD Biosciences). Briefly, cells were resuspended in 1× binding buffer and incubated with fluorochrome-conjugated Annexin V and 7-AAD for 15 min in darkness at room temperature.

CDK4 = target: T2, CDK4 (Homo sapiens, UniProt P11802); assay: CDK4 percentage degradation in Calu-1 cells (immunoblotting); details: Calu-1 cells, 200 nM, 16 hours; read-out: CDK4 Degradation (200 nM)
T2 construct: endogenous in cells; host or cells: Calu-1
T2 sequence (P11802 2-303 limits assumed): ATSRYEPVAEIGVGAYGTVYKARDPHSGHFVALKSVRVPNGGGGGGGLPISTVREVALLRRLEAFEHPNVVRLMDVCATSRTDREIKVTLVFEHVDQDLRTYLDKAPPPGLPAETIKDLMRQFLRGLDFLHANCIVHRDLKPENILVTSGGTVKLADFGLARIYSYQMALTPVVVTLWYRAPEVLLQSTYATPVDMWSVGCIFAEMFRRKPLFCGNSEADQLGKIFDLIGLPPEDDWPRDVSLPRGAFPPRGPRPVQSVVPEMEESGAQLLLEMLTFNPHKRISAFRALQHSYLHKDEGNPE
T2 sequence (P24385 whole entry partner): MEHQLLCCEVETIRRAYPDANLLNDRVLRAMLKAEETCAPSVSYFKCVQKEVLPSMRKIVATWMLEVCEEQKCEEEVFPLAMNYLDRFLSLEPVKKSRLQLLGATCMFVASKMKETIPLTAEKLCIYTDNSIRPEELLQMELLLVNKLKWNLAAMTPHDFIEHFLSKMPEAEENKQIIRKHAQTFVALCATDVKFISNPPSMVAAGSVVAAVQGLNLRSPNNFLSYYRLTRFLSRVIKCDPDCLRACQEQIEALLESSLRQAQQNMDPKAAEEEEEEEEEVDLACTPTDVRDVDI
T2 sequence (Q16531 2-1140 limits assumed, further chain): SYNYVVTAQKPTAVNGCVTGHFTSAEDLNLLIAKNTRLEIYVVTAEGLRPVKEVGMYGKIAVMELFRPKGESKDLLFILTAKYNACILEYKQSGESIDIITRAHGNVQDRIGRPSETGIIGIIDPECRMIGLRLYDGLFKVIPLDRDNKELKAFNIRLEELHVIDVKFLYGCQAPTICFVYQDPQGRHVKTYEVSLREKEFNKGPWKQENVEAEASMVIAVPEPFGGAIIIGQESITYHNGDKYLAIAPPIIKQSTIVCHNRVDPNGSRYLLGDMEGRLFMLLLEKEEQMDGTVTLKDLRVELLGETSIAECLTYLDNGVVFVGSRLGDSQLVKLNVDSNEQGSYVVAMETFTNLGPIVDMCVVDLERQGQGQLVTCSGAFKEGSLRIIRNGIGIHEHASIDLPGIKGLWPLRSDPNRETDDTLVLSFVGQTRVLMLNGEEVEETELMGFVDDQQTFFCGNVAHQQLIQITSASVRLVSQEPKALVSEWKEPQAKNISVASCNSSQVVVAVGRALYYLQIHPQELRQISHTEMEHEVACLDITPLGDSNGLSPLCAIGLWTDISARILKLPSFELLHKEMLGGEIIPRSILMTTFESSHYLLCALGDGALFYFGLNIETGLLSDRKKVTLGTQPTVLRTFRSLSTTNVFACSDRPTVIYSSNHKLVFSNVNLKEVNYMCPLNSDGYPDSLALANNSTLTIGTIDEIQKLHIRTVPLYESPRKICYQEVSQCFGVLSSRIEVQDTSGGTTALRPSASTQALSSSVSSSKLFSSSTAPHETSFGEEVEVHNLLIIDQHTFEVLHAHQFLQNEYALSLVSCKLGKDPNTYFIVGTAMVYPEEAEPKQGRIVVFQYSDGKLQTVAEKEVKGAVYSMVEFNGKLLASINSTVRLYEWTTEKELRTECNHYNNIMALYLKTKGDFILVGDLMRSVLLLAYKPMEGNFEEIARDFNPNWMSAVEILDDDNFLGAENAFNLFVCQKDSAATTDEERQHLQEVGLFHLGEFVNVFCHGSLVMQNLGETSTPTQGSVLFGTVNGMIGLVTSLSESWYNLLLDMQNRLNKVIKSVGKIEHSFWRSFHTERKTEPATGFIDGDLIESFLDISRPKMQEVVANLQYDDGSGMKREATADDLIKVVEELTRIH
How it was run: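 CDK4 degradation was measured by immunoblotting. Cells were washed in cold PBS and lysed in RIPA buffer with inhibitors for 30 min at 4° C., then spun at 13,000 rpm to clear. After BCA protein determination, lysates were heated at 99° C. for 5 min in Laemmli buffer, resolved on SDS-PAGE, imaged on a ChemiDoc MP with ECL substrate, and band intensities quantified.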

Compound: CC(=O)c1c(C)c2cnc(Nc3ccc(N4CCN(CCOCCOCCOCCNC(=O)COc5cccc6c5C(=O)N(C5CCC(=O)NC5=O)C6=O)CC4)cn3)nc2n(C2CCCC2)c1=O (stereo not shown) [BSJ-03-123, reference compound]
- cyclin D1 protein levels [1]: did not affect
- cell viability (cellular anti-proliferation activity) (Calu-1): didn't significantly suppress tumor cell viability
- CDK4 and CDK6 protein levels (CDK4, CDK6): significantly reduced
- Calu-1 cell growth (Calu-1 cells): did not affect cyclin D1 protein levels (FIG. 11A) or suppress Calu-1 cell growth
- CDK4 and CDK6 protein levels [2]: significantly reduced CDK4 and CDK6 protein levels
- cyclin DC protein levels [2]: didn't affect cyclin DC protein levels

Compound: Cc1nc(NC(=O)c2ccccc2NC(=O)CCCCCCCCCCCNCCNC(=O)C[C@@H]2N=C(c3ccc(Cl)cc3)c3c(sc(C)c3C)-n3c(C)nnc32)sc1C [CPD-253, (S)-2-(12-((2-(2-(4-(4-Chlorophenyl)-2,3,9-trimethyl-6H-thieno[3,2-f][1,2,4]triazolo[4,3-a][1,4]diazepin-6-yl)acetamido)ethyl)amino)dodecanamido)-N-(4,5-dimethylthiazol-2-yl)benzamide]
- reduction of BRD4 protein levels (BRD4 [3]): dramatically reduce
- BRD4 protein levels (BRD4 [4]): reduced BRD4 protein levels in a concentration-dependent manner

Compound: CNc1ccc(C(=O)Nc2ccc(OC)nn2)c(NC(=O)CCOCCOCCNC(=O)CN2CCN(c3ccc(Nc4ncc5c(C)c(C(C)=O)c(=O)n(C6CCCC6)c5n4)nc3)CC2)c1 [CPD-343, 2-(3-(2-(2-(2-(4-(6-((6-Acetyl-8-cyclopentyl-5-methyl-7-oxo-7,8-dihydropyrido[2,3-d]pyrimidin-2-yl)amino)pyridin-3-yl)piperazin-1-yl)acetamido)ethoxy)ethoxy)propanamido)-N-(6-methoxypyridazin-3-yl)-4-(methylamino)benzamide]
- cell viability in T47D palbo-resistant model [5]: remained effective in T47D palbo-resistant model
- CyclinD1 Degradation (200 nM) (cyclin D1): A (protein percentage degradation >=80%)
- Annexin V+ population (T47D cells [6]; 10 nM): 26.9%
- Annexin V+ population (T47D cells [6]; 200 nM): 52.6%
- activity in T47D palbo-resistant model compared to parental cells [7]: remain effective
- Annexin V+ population (T47D cells [8]; 10 nM): 26.9%
- Annexin V+ population (T47D cells [8]; 200 nM): 52.6%
- inhibition at 0.2 µM (CDK4): > 80%
